Source: US20240192235A1, “CERAMIDE AND SPINGOMYELIN IN NEUROLOGICAL DISORDERS” (Duke University, priority 2021, published 2024)

Tests used:
[1] = cited from earlier work
SP1 R1 = SP1 R1 (Homo sapiens, UniProt P21453); settings: cited from earlier work
[2] = Fingolimod plasma concentration after oral administration to WT mice (UHPLC, MS-MS); type: in vivo; settings: both sexes, C57BL/6J, mouse, oral 1 mg/kg/day, read-out: Fingolimod levels in plasma
Method: To determine if fingolimod (e.g., Gilenya®, Novartis) oral administration achieves appropriate plasma concentration, 8 WT mice at 7 months old (50% females) were treated with fingolimod at 1 mg/kg/day for 4 wks. Plasma samples were collected at two time points (2nd and 4th weeks) after treatment and analyzed by UHPLC and MS-MS. Fingolimod levels in plasma were in ng/mL: 2nd week=8.03±0.24 and 4th week=10.02±0.4.

WT and APP/PS1 mice [3] = test: Novel object recognition (NOR) test; type: in vivo; settings: 1 mg/kg/day for eight weeks
Text: (§1) APPswe/PS1dE9 (referred to as APP/PS1) and C57BI/6J (referred to as WT) mice were purchased from The Jackson Laboratory. The APP/PS1 is a double transgenic mouse expressing a chimeric mouse/human amyloid precursor protein (Mo/HuAPP695swe) and a mutant human presenilin 1 (PS1-dE9), both directed to CNS neurons. 50% of animals used in all experiments were male.
(§2) APP/PS1 mice and their WT littermates were used to examine fingolimod effects in vivo. Fingolimod treatment was provided in drinking water in a dark container and changed every 48 h to provide 1 mg/kg/day.
Mice were habituated to experimental apparatus consisting of a gray rectangular open field (60 cm×50 cm×26 cm) for 5 min in the absence of any objects for 3 days. On the third day, after the habituation trial, mice were placed in the experimental apparatus in the presence of two identical objects and allowed to explore them for 5 min. […] All sessions were recorded using Noldus Media Recorder software. Exploration of the objects was defined as the mice facing and sniffing the objects within 2 cm distance and/or touching them, assessed with ANY-maze software. The ability of the mouse to recognize the novel object (discrimination index) was determined by dividing the mean time exploring the novel object by the mean of the total time exploring the novel and familiar objects during the test session. […]

WT and APP/PS1 mice [4] = test: Barnes Maze task; type: in vivo; settings: 1 mg/kg/day for eight weeks, probe trial
Text: as §1, §2
The behavioral apparatus consisted of a white flat, circular disk with 20 holes around its perimeter. One hole held the entrance to a darkened escape box not visible from the surface of the board, allowing the subject to exit the maze. The escape chamber position remained fixed during all trials. Mice learn the location of the escape hole using spatial reference points that were fixed in relation to the maze (extra-maze cues). The task consisted of one habituation trial on day 1 where the escape hole was presented to the animal, the animal remained in the escape box for 2 min. […] All sessions were recorded using Debut video software and assessed through ANY-maze software. For each trial, several parameters were recorded to assess performance. […] For the probe trial, time spent in the target quadrant and target hole were analyzed. […]

[5] = fingolimod-treated APP/PS1 mice

Sequence of SP1 R1 (P21453 whole entry): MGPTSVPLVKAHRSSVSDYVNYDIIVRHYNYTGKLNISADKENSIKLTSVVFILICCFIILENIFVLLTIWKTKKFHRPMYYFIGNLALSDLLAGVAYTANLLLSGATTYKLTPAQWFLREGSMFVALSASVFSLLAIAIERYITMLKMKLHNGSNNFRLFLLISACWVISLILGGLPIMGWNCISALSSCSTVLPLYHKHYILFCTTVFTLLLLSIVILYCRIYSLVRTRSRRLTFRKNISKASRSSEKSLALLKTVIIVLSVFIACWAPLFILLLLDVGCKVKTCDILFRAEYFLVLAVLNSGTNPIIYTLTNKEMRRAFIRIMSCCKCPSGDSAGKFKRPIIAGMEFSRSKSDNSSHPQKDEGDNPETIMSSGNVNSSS

CC(C)Oc1ccc(-c2nc(-c3cccc4c3CC[C@@H]4NCCO)no2)cc1C#N [Ozanimod]
cognitive processing speed as assessed by the Symbol Digit Modalities Test ([1]; compared to IFNβ1a treatment): improved
loss of thalamic volume ([1]; compared to IFNβ1a treatment): slower

FC(F)(F)c1cccc(-c2noc(-c3cc(-c4ccccc4)c(C(F)(F)F)s3)n2)c1 [SEW2871]
Aβ mediated behavior abnormalities (SP1 R1): improve
tau phosphorylation (SP1 R1): decrease

CCc1cc(/C(C)=N/OCc2ccc(C3CCCCC3)c(C(F)(F)F)c2)ccc1CN1CC(C(=O)O)C1 [Siponimod]
Symbol Digit Modalities Test (SDMT) oral score ([1]; compared with placebo, study months 12 and 24): benefit in favor of Siponimod
Brief Visuospatial Memory Test-Revised ([1]; compared with placebo): no statistically significant differences between groups
PASAT score ([1]; compared with placebo): no statistically significant differences between groups
low contrast visual acuity test ([1]; compared with placebo): small benefit in favor of Siponimod

CCCCCCCCc1ccc(CCC(N)(CO)CO)cc1 [fingolimod]
concentration at 2 weeks ([2]; 2nd week): 8.03 ± 0.24 ng/mL
concentration at 4 weeks ([2]; 4th week): 10 ± 0.4 ng/mL
NOR discrimination index (NOR-DI) (WT and APP/PS1 mice [3]; [5]): 0.40±0.13
NOR discrimination index (NOR-DI) (WT and APP/PS1 mice [3]; fingolimod-treated WT mice): 0.47±0.08
percentage of time spent in the target quadrant (WT and APP/PS1 mice [4]; [5]): 54.81±9.15%
percentage of time spent in the target quadrant (WT and APP/PS1 mice [4]; fingolimod-treated WT mice): 63.46±11.51%
